pIC50: −log10 of the molar value. Activity calls are given as the source filed them. No cut-off for these calls is given here.
Columns and labels:
HCT-116 [1] = assay: Antiproliferative activity against human HCT-116 cells incubated for 48 hrs by MTT assay; assay type: functional, cell-based; conditions: HCT-116, 48 h
[2] = biological target: T1, Class 1 histone deacetylase (Homo sapiens) (UniProt Q13547+O15379+Q92769+Q9BY41); assay: Inhibition of class 1 HDACs in human HCT-116 cells assessed as upregulation of acetylated alpha-H3 level at 1 uM incubated for 24 hrs by Western blotting analysis; assay type: cell-based
T1 sequence (O15379 whole entry, looked up): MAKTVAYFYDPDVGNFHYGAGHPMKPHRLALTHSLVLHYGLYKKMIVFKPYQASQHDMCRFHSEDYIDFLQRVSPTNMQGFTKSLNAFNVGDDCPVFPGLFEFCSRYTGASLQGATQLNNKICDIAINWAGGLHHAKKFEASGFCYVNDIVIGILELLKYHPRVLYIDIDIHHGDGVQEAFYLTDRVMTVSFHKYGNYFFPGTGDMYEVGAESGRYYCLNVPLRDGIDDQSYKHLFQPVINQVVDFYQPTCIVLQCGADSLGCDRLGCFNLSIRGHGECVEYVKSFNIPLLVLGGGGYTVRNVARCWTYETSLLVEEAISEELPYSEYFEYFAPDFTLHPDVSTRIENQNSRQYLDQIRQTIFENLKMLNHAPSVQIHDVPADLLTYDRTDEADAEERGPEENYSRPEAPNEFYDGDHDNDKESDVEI
T1 sequence (Q13547 whole entry, looked up): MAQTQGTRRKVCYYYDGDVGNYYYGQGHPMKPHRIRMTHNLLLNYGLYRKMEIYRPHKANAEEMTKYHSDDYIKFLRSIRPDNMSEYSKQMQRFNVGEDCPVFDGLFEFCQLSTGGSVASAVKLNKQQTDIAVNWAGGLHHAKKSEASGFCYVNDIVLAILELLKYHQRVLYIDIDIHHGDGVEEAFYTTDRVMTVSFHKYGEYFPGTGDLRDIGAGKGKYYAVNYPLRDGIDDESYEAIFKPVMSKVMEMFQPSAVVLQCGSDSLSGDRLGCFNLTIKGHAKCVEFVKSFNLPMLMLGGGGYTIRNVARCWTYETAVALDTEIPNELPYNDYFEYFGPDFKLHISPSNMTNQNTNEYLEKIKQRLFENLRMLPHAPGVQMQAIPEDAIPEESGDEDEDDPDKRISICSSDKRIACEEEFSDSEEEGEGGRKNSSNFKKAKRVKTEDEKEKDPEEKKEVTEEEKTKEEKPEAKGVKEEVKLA
T1 sequence (Q92769 whole entry, looked up): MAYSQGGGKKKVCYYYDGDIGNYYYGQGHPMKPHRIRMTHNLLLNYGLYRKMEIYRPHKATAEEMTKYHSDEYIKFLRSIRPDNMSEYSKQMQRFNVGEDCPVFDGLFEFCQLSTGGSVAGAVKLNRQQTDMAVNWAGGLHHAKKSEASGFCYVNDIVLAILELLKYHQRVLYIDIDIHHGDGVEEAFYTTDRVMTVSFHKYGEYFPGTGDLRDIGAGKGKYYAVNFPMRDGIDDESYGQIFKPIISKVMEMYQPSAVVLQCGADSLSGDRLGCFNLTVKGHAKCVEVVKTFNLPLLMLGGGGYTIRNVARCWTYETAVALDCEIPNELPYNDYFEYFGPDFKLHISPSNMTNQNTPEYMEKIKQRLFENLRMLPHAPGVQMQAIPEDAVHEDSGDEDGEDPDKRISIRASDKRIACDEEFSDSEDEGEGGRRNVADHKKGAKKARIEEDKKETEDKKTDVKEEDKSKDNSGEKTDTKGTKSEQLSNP
T1 sequence (Q9BY41 whole entry, looked up): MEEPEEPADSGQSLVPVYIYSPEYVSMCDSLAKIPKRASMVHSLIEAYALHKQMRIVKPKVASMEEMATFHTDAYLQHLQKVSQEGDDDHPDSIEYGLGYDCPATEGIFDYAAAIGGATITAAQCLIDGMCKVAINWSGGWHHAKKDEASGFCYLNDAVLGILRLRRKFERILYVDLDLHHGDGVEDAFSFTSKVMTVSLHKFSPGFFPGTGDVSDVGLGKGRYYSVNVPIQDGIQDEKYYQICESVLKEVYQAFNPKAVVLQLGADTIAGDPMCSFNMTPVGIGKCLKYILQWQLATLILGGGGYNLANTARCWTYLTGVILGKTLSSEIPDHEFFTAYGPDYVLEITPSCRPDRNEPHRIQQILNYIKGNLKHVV

[3] = biological target: T2, Protein deacetylase HDAC6 (Homo sapiens) (UniProt Q9UBN7); assay: Inhibition of HDAC6 in human HCT-116 cells assessed as upregulation of acetylated alpha-tubulin level at 1 uM incubated for 24 hrs by Western blotting analysis; assay type: cell-based
T2 sequence (whole entry): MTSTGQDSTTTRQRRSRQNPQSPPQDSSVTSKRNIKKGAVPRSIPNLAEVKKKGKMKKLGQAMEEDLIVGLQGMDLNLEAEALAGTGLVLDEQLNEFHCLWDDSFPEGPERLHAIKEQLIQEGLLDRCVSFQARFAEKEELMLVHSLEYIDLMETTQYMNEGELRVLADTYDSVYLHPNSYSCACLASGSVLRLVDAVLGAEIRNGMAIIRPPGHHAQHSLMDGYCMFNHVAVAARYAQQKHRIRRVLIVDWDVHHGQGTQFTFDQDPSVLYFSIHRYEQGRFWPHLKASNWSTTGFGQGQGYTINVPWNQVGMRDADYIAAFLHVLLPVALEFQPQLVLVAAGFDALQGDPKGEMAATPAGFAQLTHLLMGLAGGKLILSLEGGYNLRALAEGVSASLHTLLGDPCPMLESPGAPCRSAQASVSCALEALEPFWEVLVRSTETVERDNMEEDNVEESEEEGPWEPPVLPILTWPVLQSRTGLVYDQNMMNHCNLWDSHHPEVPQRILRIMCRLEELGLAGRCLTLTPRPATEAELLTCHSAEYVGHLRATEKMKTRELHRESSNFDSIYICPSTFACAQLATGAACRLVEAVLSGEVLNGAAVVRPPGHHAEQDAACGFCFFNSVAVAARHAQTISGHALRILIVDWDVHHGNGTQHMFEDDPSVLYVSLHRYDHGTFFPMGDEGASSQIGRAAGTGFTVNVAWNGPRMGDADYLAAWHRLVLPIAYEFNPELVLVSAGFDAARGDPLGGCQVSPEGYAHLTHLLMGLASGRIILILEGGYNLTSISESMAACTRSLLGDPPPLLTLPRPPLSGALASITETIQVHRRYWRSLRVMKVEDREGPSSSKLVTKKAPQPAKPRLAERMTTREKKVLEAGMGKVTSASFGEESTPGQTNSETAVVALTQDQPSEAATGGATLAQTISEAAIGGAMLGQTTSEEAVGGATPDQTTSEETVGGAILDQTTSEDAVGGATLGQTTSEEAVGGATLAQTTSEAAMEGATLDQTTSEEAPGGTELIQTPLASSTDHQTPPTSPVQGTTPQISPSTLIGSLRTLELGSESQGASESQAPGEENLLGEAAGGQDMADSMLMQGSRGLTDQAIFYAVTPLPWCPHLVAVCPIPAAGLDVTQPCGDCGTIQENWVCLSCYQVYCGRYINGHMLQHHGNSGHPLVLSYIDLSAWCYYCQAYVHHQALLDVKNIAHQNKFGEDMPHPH

Histone deacetylase 1 = Histone deacetylase 1 (Homo sapiens, UniProt Q13547); assay: Inhibition of recombinant human HDAC1 using Boc-Lys(Ac)-AMC as substrate preincubated for 1 hr followed by substrate addition and measured after 2 hrs by microplate reader assay
Histone deacetylase 1, sequence (Q13547 whole entry): as the sequence (Q13547 whole entry, looked up) above

HCT-116 [4] = assay: Induction of cell cycle arrest in human HCT-116 cells assessed as accumulation of cells at G1 phase at 1 uM after 24 hrs by PI staining based flow cytometry analysis (reference value: 37.9%); assay type: functional
HCT-116 [5] = assay: Induction of cell cycle arrest in human HCT-116 cells assessed as accumulation of cells at S phase at 1 uM after 24 hrs by PI staining based flow cytometry analysis (reference value: 52.8%); assay type: functional
HCT-116 [6] = assay: Induction of cell cycle arrest in human HCT-116 cells assessed as accumulation of cells at G2/M phase at 1 uM after 24 hrs by PI staining based flow cytometry analysis (reference value: 9.3%); assay type: functional
HCT-116 [7] = assay: Induction of cell cycle arrest in human HCT-116 cells assessed as accumulation of cells at G1 phase at 2 uM after 24 hrs by PI staining based flow cytometry analysis (reference value: 37.9%); assay type: functional
HCT-116 [8] = assay: Induction of cell cycle arrest in human HCT-116 cells assessed as accumulation of cells at S phase at 2 uM after 24 hrs by PI staining based flow cytometry analysis (reference value: 52.8%); assay type: functional
HCT-116 [9] = assay: Induction of cell cycle arrest in human HCT-116 cells assessed as accumulation of cells at G2/M phase at 2 uM after 24 hrs by PI staining based flow cytometry analysis (reference value: 9.3%); assay type: functional
HCT-116 [10] = assay: Induction of apoptosis in human HCT-116 cells assessed as viable cells at 2 uM incubated for 24 hrs by Annexin V-FITC/PI staining based flow cytometry analysis ( Rvb = 92.2%); assay type: functional; conditions: read-out: Activity
HCT-116 [11] = assay: Induction of apoptosis in human HCT-116 cells assessed as early apoptotic cells at 2 uM incubated for 24 hrs by Annexin V-FITC/PI staining based flow cytometry analysis ( Rvb = 2.36%); assay type: functional
HCT-116 [12] = assay: Induction of apoptosis in human HCT-116 cells assessed as late apoptotic cells at 2 uM incubated for 24 hrs by Annexin V-FITC/PI staining based flow cytometry analysis ( Rvb = 5.32%); assay type: functional
HCT-116 [13] = assay: Induction of apoptosis in human HCT-116 cells assessed as necrotic cells at 2 uM incubated for 24 hrs by Annexin V-FITC/PI staining based flow cytometry analysis ( Rvb = 0.24%); assay type: functional
HCT-116 [14] = assay: Induction of apoptosis in human HCT-116 cells assessed as viable cells at 4 uM incubated for 24 hrs by Annexin V-FITC/PI staining based flow cytometry analysis ( Rvb = 92.2%); assay type: functional; conditions: read-out: Activity
HCT-116 [15] = assay: Induction of apoptosis in human HCT-116 cells assessed as early apoptotic cells at 4 uM incubated for 24 hrs by Annexin V-FITC/PI staining based flow cytometry analysis ( Rvb = 2.36%); assay type: functional
HCT-116 [16] = assay: Induction of apoptosis in human HCT-116 cells assessed as late apoptotic cells at 4 uM incubated for 24 hrs by Annexin V-FITC/PI staining based flow cytometry analysis ( Rvb = 5.32%); assay type: functional
HCT-116 [17] = assay: Induction of apoptosis in human HCT-116 cells assessed as necrotic cells at 4 uM incubated for 24 hrs by Annexin V-FITC/PI staining based flow cytometry analysis ( Rvb = 0.24%); assay type: functional
HCT-116 [18] = assay: Antitumor activity against human HCT-116 cells xenografted with BALB/c nude mouse assessed as tumor growth inhibition at 10 mg/kg, ip administered every 2 days for 26 days; assay type: functional; conditions: HCT-116, 624 h, time 26 day, read-out: TGI
EBC-1 = assay: Antiproliferative activity against human EBC-1 cells incubated for 48 hrs by MTT assay; assay type: functional, cell-based; conditions: EBC-1, 48 h
NCI-H1581 = assay: Antiproliferative activity against human NCI-H1581 cells incubated for 48 hrs by MTT assay; assay type: functional, cell-based; conditions: NCI-H1581, 48 h
[19] = biological target: T1, Class 1 histone deacetylase (Homo sapiens); assay: Inhibition of class 1 HDACs in human HCT-116 cells assessed as upregulation of acetylated alpha-H3 level incubated for 24 hrs by Western blotting analysis; assay type: cell-based; conditions: dose 0.5-4 µM
[20] = biological target: T2, Protein deacetylase HDAC6 (Homo sapiens); assay: Inhibition of HDAC6 in human HCT-116 cells assessed as upregulation of acetylated alpha-tubulin level incubated for 24 hrs by Western blotting analysis; assay type: cell-based; conditions: dose 0.5-4 µM
HCT-116 [21] = assay: Induction of cell cycle arrest in human HCT-116 cells assessed as accumulation of cells at G1 phase at 0.1 uM after 24 hrs by PI staining based flow cytometry analysis (reference value: 37.9%); assay type: functional
HCT-116 [22] = assay: Induction of cell cycle arrest in human HCT-116 cells assessed as accumulation of cells at S phase at 0.1 uM after 24 hrs by PI staining based flow cytometry analysis (reference value: 52.8%); assay type: functional
HCT-116 [23] = assay: Induction of cell cycle arrest in human HCT-116 cells assessed as accumulation of cells at G2/M phase at 0.1 uM after 24 hrs by PI staining based flow cytometry analysis (reference value: 9.3%); assay type: functional
HCT-116 [24] = assay: Induction of cell cycle arrest in human HCT-116 cells assessed as accumulation of cells at G1 phase at 0.2 uM after 24 hrs by PI staining based flow cytometry analysis (reference value: 37.9%); assay type: functional
HCT-116 [25] = assay: Induction of cell cycle arrest in human HCT-116 cells assessed as accumulation of cells at S phase at 0.2 uM after 24 hrs by PI staining based flow cytometry analysis (reference value: 52.8%); assay type: functional
HCT-116 [26] = assay: Induction of cell cycle arrest in human HCT-116 cells assessed as accumulation of cells at G2/M phase at 0.2 uM after 24 hrs by PI staining based flow cytometry analysis (reference value: 9.3%); assay type: functional
HCT-116 [27] = assay: Induction of cell cycle arrest in human HCT-116 cells assessed as accumulation of cells at G1 phase at 0.4 uM after 24 hrs by PI staining based flow cytometry analysis (reference value: 37.9%); assay type: functional
HCT-116 [28] = assay: Induction of cell cycle arrest in human HCT-116 cells assessed as accumulation of cells at S phase at 0.4 uM after 24 hrs by PI staining based flow cytometry analysis (reference value: 52.8%); assay type: functional
HCT-116 [29] = assay: Induction of cell cycle arrest in human HCT-116 cells assessed as accumulation of cells at G2/M phase at 0.4 uM after 24 hrs by PI staining based flow cytometry analysis (reference value: 9.3%); assay type: functional
HCT-116 [30] = assay: Induction of apoptosis in human HCT-116 cells assessed as viable cells at 0.2 uM incubated for 24 hrs by Annexin V-FITC/PI staining based flow cytometry analysis ( Rvb = 92.2%); assay type: functional; conditions: read-out: Activity
HCT-116 [31] = assay: Induction of apoptosis in human HCT-116 cells assessed as early apoptotic cells at 0.2 uM incubated for 24 hrs by Annexin V-FITC/PI staining based flow cytometry analysis ( Rvb = 2.36%); assay type: functional
HCT-116 [32] = assay: Induction of apoptosis in human HCT-116 cells assessed as late apoptotic cells at 0.2 uM incubated for 24 hrs by Annexin V-FITC/PI staining based flow cytometry analysis ( Rvb = 5.32%); assay type: functional
HCT-116 [33] = assay: Induction of apoptosis in human HCT-116 cells assessed as necrotic cells at 0.2 uM incubated for 24 hrs by Annexin V-FITC/PI staining based flow cytometry analysis ( Rvb = 0.24%); assay type: functional
HCT-116 [34] = assay: Induction of apoptosis in human HCT-116 cells assessed as viable cells at 0.4 uM incubated for 24 hrs by Annexin V-FITC/PI staining based flow cytometry analysis ( Rvb = 92.2%); assay type: functional; conditions: read-out: Activity
HCT-116 [35] = assay: Induction of apoptosis in human HCT-116 cells assessed as early apoptotic cells at 0.4 uM incubated for 24 hrs by Annexin V-FITC/PI staining based flow cytometry analysis ( Rvb = 2.36%); assay type: functional
HCT-116 [36] = assay: Induction of apoptosis in human HCT-116 cells assessed as late apoptotic cells at 0.4 uM incubated for 24 hrs by Annexin V-FITC/PI staining based flow cytometry analysis ( Rvb = 5.32%); assay type: functional
HCT-116 [37] = assay: Induction of apoptosis in human HCT-116 cells assessed as necrotic cells at 0.4 uM incubated for 24 hrs by Annexin V-FITC/PI staining based flow cytometry analysis ( Rvb = 0.24%); assay type: functional

O=C(NCCSSCCNC(=O)/C(Cc1ccc(O)c(Br)c1)=N/O)/C(Cc1ccc(O)c(Br)c1)=N/O [PSAMMAPLIN A]
pIC50 (HCT-116 [1]): 5.52 | inhibition [2]: Active | inhibition [3]: inactive | pIC50 (Histone deacetylase 1): 7.59 | Activity (HCT-116 [4]): 45.72% | Activity (HCT-116 [5]): 41.24% | Activity (HCT-116 [6]): 13.05% | Activity (HCT-116 [7]): 55.34% | Activity (HCT-116 [8]): 28.56% | Activity (HCT-116 [9]): 16.09% | viability at 2 µM (HCT-116 [10]): 74.8% | Activity (HCT-116 [11]): 9.74% | Activity (HCT-116 [12]): 14.8% | Activity (HCT-116 [13]): 0.67% | viability at 4 µM (HCT-116 [14]): 42.5% | Activity (HCT-116 [15]): 16.2% | Activity (HCT-116 [16]): 40.3% | Activity (HCT-116 [17]): 1.06% | inhibition in vivo at 10 mg/kg (HCT-116 [18]): 36.1%

O=C(NCC[Se][Se]CCNC(=O)/C(Cc1ccc(Br)o1)=N/O)/C(Cc1ccc(Br)o1)=N/O
pIC50 (HCT-116 [1]): 6.54 | pIC50 (EBC-1): 6.21 | pIC50 (NCI-H1581): 6.32 | inhibition [2]: Active | inhibition [3]: Active | inhibition [19]: Dose-Dependent Effect | inhibition [20]: Dose-Dependent Effect | Activity (HCT-116 [21]): 35.83% | Activity (HCT-116 [22]): 45.66% | Activity (HCT-116 [23]): 18.51% | Activity (HCT-116 [24]): 51.33% | Activity (HCT-116 [25]): 31.39% | Activity (HCT-116 [26]): 17.28% | Activity (HCT-116 [27]): 56.35% | Activity (HCT-116 [28]): 24.54% | Activity (HCT-116 [29]): 19.11% | viability at 0.2 µM (HCT-116 [30]): 80.6% | Activity (HCT-116 [31]): 11.4% | Activity (HCT-116 [32]): 18.2% | Activity (HCT-116 [33]): 0.001% | viability at 0.4 µM (HCT-116 [34]): 70.3% | Activity (HCT-116 [35]): 17.8% | Activity (HCT-116 [36]): 11.9% | Activity (HCT-116 [37]): 0%
